The results in this text go back to US20260199362A1, “VITAMIN B2 FOR USE IN IMPROVING GUT HEALTH” (DSM IP Assets B.V., priority 2022, published 2026).

The test system of the experiment is Lactobacillus rhamnosus GG (Lactobacillus rhamnosus DSM 32550). In words: Short-term batch-fermentation colon model (M-SHIME) with qPCR of Lactobacillus rhamnosus GG level. It counts as cell-based. As for the experimental part:
A short-term batch-fermentation experiment was carried out by ProDigest, consisting of a colonic incubation of a representative dose of a selected vitamin with a representative bacterial inoculum under simulated conditions for the proximal large intestine. In the current experiment, the bacterial inocula were derived from fresh fecal samples of six different healthy adult donors. […]
In this study, the Lactobacillus rhamnosus GG equivalent Lactobacillus rhamnosus DSM 32550 (Biocare Copenhagen) was added to the colon model containing the donor samples, alone or in combination with vitamin B2 (see Table 1). After 48 h of incubation, the abundance of the added strain was analyzed using primers that are specific for Lactobacillus rhamnosus GG and its equivalent Lactobacillus rhamnosus DSM 32550. […]
qPCR was performed on putative phage tail protein gene (NCBI reference NC_013198) to monitor the level of the supplemented probiotic Lactobacillus rhamnosus GG strain within the gut microbiome, as described previously (Brandt, Alatossava (2003)-Specific identification of certain probiotic Lactobacillus rhamnosus strains with PCR primers based on phage-related sequences). Samples were analyzed from the mucus environment following 48 h of incubation. […]

Take `Cc1cc2nc3c(=O)[nH]c(=O)nc-3n(C[C@H](O)[C@H](O)[C@H](O)CO)c2cc1C` [vitamin B2, riboflavin]: where the note is “vitamin B2 0.01667 g/L co-supplemented with L. rhamnosus GG 1*10^9 CFU, mucus environment, 48 h colonic incubation, fecal inocula of six healthy human donors, average, qPCR”, the “copies of the Lactobacillus rhamnosus GG specific putative phage tail protein gene relative to control (Lactobacillus rhamnosus GG alone)” value is “around three”. In addition, the “levels of Lactobacillus rhamnosus GG in the colon model, as compared to the respective control” value (vitamin B2 0.01667 g/L co-supplemented with L. rhamnosus GG, 48 h, six human donors, paired t-test, p<0.05) is reported as “significantly increased”.
